In paper PMC11882969 (Nature Communications, 2025):

Target: CB1 (rCB1) (Rattus norvegicus, UniProt P20272)
Experiment: Single-point radioligand displacement screen
Assay type: binding
Conditions: for % 1H-CP-55,940 displacement (mean) from single point screen: 10 µM, 1 µM or 300 nM by cell colour (not visible); for rep1_displacement / rep2_displacement / rep3_displacement: Figure 1c source data; for rep1_displacement: replicate 1; for rep2_displacement: replicate 2; for rep3_displacement: replicate 3; for % radioligand displacement [S.D]: single point at 10 µM, three replicates

Sequence of CB1 (rCB1) (P20272 whole entry): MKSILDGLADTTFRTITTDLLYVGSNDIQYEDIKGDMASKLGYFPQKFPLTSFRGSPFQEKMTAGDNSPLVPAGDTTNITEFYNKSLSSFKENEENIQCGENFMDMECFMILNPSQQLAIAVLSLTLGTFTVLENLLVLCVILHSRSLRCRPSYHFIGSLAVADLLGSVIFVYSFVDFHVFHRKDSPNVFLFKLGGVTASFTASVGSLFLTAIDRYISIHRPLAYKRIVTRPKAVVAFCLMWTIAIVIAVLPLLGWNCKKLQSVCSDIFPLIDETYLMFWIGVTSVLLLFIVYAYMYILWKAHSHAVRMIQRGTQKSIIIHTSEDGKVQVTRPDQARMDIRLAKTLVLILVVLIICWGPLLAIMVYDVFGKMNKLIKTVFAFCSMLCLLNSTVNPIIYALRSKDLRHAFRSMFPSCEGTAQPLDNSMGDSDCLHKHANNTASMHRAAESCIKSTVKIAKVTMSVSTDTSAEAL

Compound	% 1H-CP-55,940 displacement (mean) from single point screen	rep1_displacement	rep2_displacement	rep3_displacement	% radioligand displacement [S.D]
Cc1cc(C(=O)NC(c2cccnc2)C2CC2)nn1-c1cccc(C#N)c1 (centres unmarked) [compound 74836]	33.29%	34.5	34.8	30.5	–
COC(=O)CC(NC(=O)c1cc(C)n(-c2ccc(OC)cc2)n1)c1cccs1 (centres unmarked) [compound 90711]	7.24%	–	–	–	–
COC(=O)C(OC(=O)c1cc(C)n(-c2ccc(F)cc2)n1)c1ccccc1 (centres unmarked) [compound 62406]	-3.66%	–	–	–	–
COc1ccc(Cc2noc(-c3oc(CC4CC4)nc3C)n2)cc1 [compound 8861]	15.76%	–	–	–	–
CC(Oc1ccccc1)c1noc(-c2ccc(=O)n(-c3ccc(F)cc3)n2)n1 (centres unmarked) [compound 34765]	18.38%	25	13.3	16.8	–
Cn1nc(-c2nnc(C(C)(C)Oc3ccc(C#N)cc3)o2)c2ccccc2c1=O [0450_23]	-19.18%	–	–	–	–
COC(=O)[C@@H]1[C@@H]2CCC[C@@H]2CN1C(=O)c1nn(-c2cccc(C(F)(F)F)c2)c2c1CCC2 [10_17]	98.24%	–	–	–	–
Cn1nc(-c2nnc(C(C)(C)Oc3cccc(Cl)c3)o2)c2ccccc2c1=O [0450_22]	43.54%	–	–	–	–
Cc1nc(CC2CC2)oc1-c1nc(Cc2ccc(OCc3ccccn3)cc2)no1 [compound 9841]	19.42%	–	–	–	–
O=C(c1cn(-c2cccc(C(F)(F)F)c2)nn1)N1CC2(CCC2)C1C1CCCO1 (centres unmarked) [10_23]	25.67%	–	–	–	–
COc1cc(C(=O)OCC2CCCN2c2ccc(C)nn2)ccc1Cl (centres unmarked) [compound 65703]	17.38%	11.4	18.4	22.4	–
CC1C(C(F)(F)F)CCN1C(=O)c1csc(N(C)c2ccccc2)n1 (centres unmarked) [compound 27005]	32.20%	31.7	30.7	34.2	–
CC(C)n1nc(-c2nnc(C(C)(C)Oc3ccc(Cl)cc3)o2)c2ccccc2c1=O [compound 41360]	41.24%	–	–	–	–
COCc1nc(-c2nc(Cc3ccc4c(c3)OCO4)no2)c(-c2ccccc2)s1 [7019_29]	24.10%	–	–	–	–
O=C(CCc1ccccc1)c1cn(C2(c3ccc(F)cc3)CCOCC2)nn1 [‘7337]	56.96%	60.4	55.9	54.6	57.0% [3.04]
COC(=O)C(NC(=O)c1cc(C)n(-c2ccccc2)n1)c1cccs1 (centres unmarked) [compound 59643]	4.63%	–	–	–	–
COC(=O)C(NC(=O)c1ccc(-c2ccccc2F)o1)c1ccsc1 (centres unmarked) [compound 07099]	3.88%	–	–	–	–
Cc1c(C(=O)OCC2CSc3ccccc3O2)cnn1Cc1ccc2ccccc2c1 (centres unmarked) [7800_24]	50.03%	–	–	–	–

Compound	% 1H-CP-55,940 displacement (mean) from single point screen	rep1_displacement	rep2_displacement	rep3_displacement	% radioligand displacement [S.D]
O=C1Cc2cc(-c3csc(Cc4ccc(F)cc4)n3)cc3c2N1CCC3 [‘1038]	53.57%	56.9	51.4	52.5	53.6% [2.91]
COC(=O)C(NC(=O)c1cc(C)n(-c2ccccc2)n1)c1cccnc1 (centres unmarked) [compound 03453]	-5.45%	–	–	–	–
COCCOc1cc(C(=O)N2CCCC(CC3CCOC3)C2)nc2ccccc12 (centres unmarked) [compound 49667]	4.27%	10.3	4.1	-1.6	–
Cc1ccc(OCCC(=O)N2CC3CCCN3c3ccccc32)c(C)c1 (centres unmarked) [compound 26701]	35.34%	39	34.5	32.6	–
CCOc1cncc(NC(=O)c2cc(C)n(-c3cccc(Cl)c3)n2)n1 [compound 88160]	-5.87%	–	–	–	–
Cn1cc2c(n1)CCCC2c1nc(C2(c3cccc(C(F)(F)F)c3)CC2)no1 (centres unmarked) [compound 18525]	41.38%	39.7	46.2	38.2	–
COc1ccc(OC(C)(C)c2nnc(-c3nn(C)c(=O)c4ccccc34)o2)cc1 [compound 9753]	51.55%	–	–	–	–
Cc1c(C(=O)OCC2CSc3ccccc3S2)cnn1Cc1ccccc1 (centres unmarked) [7800_26]	69.84%	–	–	–	–
Cc1nc(C2CC2)oc1-c1nc(Cc2ccc3c(c2)OCO3)no1 [compound 0682]	-7.41%	–	–	–	–
Cc1cc(C(=O)NC(c2cccs2)C(C)(C)CO)nn1-c1cccc(Cl)c1 (centres unmarked) [compound 78220]	5.56%	–	–	–	–
Cc1c(C(=O)NCC2CSc3ccccc3O2)cnn1-c1ccc(C(F)(F)F)cc1 (centres unmarked) [compound 6445]	46.11%	–	–	–	–
COC(=O)[C@H](C)NC(=O)c1cc(C)n(-c2cccc(F)c2)n1 [1486_11]	-7.46%	–	–	–	–
CC(C)(C)c1c(C(=O)OCC2CSc3ccccc3O2)cnn1Cc1ccccc1 (centres unmarked) [7800_22]	73.02%	–	–	–	–
CCCCc1nc(C)c(Cc2nc(Cc3ccc4c(c3)OCO4)no2)s1 [7019_27]	45.01%	–	–	–	–
Cc1ccn2cc(C(=O)N3CCc4c(F)cc(Br)cc4C3)nc2c1 [compound 35971]	13.78%	9.7	11.6	20	–
Cc1nc(CC2CC2)oc1-c1nc(Cn2c(C(C)C)nc3ccccc32)no1 [7019_26]	42.67%	–	–	–	–
c1ccc(-c2nc(C3CC3)sc2-c2nnc(-c3ccc4c(c3)OCO4)o2)cc1 [7019_32]	39.89%	–	–	–	–
Cc1c(C(=O)N(C)CC2COc3ccccc3O2)cnn1-c1ccccc1 (centres unmarked) [compound 4148]	11.41%	–	–	–	–
